Test results taken from paper doi:10.1101/2023.11.02.565282v1 (biorxiv, 2023).
Read-outs that look alike come from different tables or passages of the source.

Columns and labels:
[1] = target: T1, GluK2(VCQ)2a (Rattus norvegicus, UniProt P42260, I567V/Y571C); assay: calcium-sensitive fluorescence assay; assay type: cell-based; conditions: agonist; with 150 µM BPAM344; Fluo buffer pH 7.4
[2] = target: T1, GluK2(VCQ)2a; assay: calcium-sensitive fluorescence assay; assay type: cell-based

T1 sequence (P42260 32-908 I567V/Y571C): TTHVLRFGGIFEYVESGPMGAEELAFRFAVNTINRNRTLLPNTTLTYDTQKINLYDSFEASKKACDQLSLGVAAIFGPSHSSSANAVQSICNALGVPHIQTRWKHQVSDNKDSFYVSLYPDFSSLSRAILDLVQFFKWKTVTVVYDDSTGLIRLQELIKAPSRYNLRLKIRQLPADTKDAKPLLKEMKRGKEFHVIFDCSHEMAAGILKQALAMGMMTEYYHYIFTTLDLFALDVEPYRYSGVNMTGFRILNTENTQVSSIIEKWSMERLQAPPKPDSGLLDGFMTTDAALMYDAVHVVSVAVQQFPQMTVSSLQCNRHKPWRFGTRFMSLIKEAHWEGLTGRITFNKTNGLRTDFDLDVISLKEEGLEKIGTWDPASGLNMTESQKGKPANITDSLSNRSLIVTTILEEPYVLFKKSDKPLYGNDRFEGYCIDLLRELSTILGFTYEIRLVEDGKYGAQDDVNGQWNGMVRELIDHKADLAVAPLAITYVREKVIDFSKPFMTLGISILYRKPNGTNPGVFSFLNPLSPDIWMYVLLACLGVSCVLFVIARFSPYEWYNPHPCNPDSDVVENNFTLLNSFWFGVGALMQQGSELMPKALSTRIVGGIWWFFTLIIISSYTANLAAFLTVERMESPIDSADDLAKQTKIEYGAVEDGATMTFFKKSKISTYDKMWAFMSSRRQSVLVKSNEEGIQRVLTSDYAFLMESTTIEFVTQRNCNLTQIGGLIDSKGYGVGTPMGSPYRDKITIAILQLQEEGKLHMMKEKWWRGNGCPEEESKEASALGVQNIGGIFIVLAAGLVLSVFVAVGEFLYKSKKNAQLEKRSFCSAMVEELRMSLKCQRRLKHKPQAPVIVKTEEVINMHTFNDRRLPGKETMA

| Compound | EC50 [1] [µM] | EC50 [2] [µM] |
| --- | --- | --- |
| C/C(=C/C=C/[C@@H](C)C(=O)O)[C@H]1CN[C@H](C(=O)O)[C@H]1CC(=O)O [domoate] | 1.33 |  |
| O=S1(=O)NCN(C2CC2)c2ccc(F)cc21 [BPAM344] |  | 75.4 |
